Measured values published in PMC6099841, “New Chromane-Based Derivatives as Inhibitors of Mycobacterium tuberculosis Salicylate Synthase (MbtI): Preliminary Biological Evaluation and Molecular Modeling Studies” (Molecules : A Journal of Synthetic Chemistry and Natural …, 2018).
Like-named read-outs stand apart in the source and are kept apart here.

Experiments:
Test in all cases: biochemical
[1] = target: T1, salicylate synthase MbtI (Mycobacterium tuberculosis, UniProt P9WFX1)
[2] = target: T1, salicylate synthase MbtI; remark: listed apart in the source
[3] = target: T1, salicylate synthase MbtI; details: read-out: MbtI Residual Activity at 100 μM

T1 sequence (P9WFX1 whole entry): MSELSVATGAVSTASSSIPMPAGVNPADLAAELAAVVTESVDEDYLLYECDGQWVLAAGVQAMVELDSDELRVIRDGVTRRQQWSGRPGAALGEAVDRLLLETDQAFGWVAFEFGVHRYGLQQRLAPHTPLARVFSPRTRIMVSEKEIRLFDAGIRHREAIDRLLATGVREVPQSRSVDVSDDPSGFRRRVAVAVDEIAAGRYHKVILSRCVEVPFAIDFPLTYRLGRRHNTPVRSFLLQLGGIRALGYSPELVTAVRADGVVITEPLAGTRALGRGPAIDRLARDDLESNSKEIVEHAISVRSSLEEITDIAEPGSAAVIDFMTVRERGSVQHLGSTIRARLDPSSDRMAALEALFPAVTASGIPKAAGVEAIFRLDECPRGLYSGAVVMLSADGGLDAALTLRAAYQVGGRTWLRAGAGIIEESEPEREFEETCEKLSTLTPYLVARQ

CC=C(Oc1cccc(C(=O)O)c1O)C(=O)O [I, (1-carboxyprop-1-enyloxy)-2-hydroxybenzoic acid]
IC50 [1]: 11.6 ± 2.4 µM

CC1CC(=O)c2c(cc(O)cc2C(=O)O)O1 (stereo not shown) [compound 1, 7-Hydroxy-2-methyl-4-oxo-3,4-dihydro-2H-benzopyran-5-carboxylic acid]
IC50 ([2]; read-out: IC50): 55.8 ± 4.2 µM

O=C(O)c1cc(O)cc2c1C(=O)CCO2 [compound 2, 7-Hydroxy-4-oxo-3,4-dihydro-2H-benzopyran-5-carboxylic acid]
IC50 ([2]; read-out: MbtI IC50): 61.3 ± 5.3 µM

CC1CCc2c(cc(O)cc2C(=O)O)O1 (stereo not shown) [compound 5, 7-Hydroxy-2-methylchroman-5-carboxylic acid]
remaining activity at 100 µM [3]: 50.1 ± 7.1%
